# Read-outs that look alike come from different tables or passages of the source.
# How the values were obtained:
# Septoria tritici = assay: Activity against the Septoria leaf spot pathogen Septoria tritici in the microtiter test (Septtr); format: cell-based; conditions: single active compound; for inhibition of growth at 0.016 ppm: conc 0.016 ppm; for inhibition of growth at 0.063 ppm: conc 0.063 ppm; for inhibition of growth at 0.004 ppm: conc 0.004 ppm
# Botrytis cinerea = assay: Activity against the gray mold pathogen Botrytis cinerea in the microtiter test (Botrci); format: cell-based; conditions: for inhibition of growth at 1 ppm / inhibition of growth at […] / inhibition of growth at 0.063 ppm / inhibition of growth at 0.016 ppm / inhibition of growth at 4 ppm / inhibition of growth at 16 ppm: Botrytis cinerea, 168 h, read-out: Observed activity; for inhibition of growth at […]: conc 0.25 ppm; for inhibition of growth at 0.016 ppm: conc 0.016 ppm
# Pyricularia oryzae = assay: microbe, parasite or virus in culture; format: cell-based; conditions: for Observed activity: Pyrior, single active compound
# Phytophthora infestans = assay: microbe, parasite or virus in culture; format: cell-based
# Fusarium culmorum = assay: Activity against Fusarium culmorum in the microtiter test (Fusacu); format: cell-based; conditions: single active compound; for inhibition of growth at 1 ppm / inhibition of growth at […] / inhibition of growth at 4 ppm / inhibition of growth at 16 ppm / inhibition of growth at 0.063 ppm: Fusarium culmorum, 168 h, read-out: Observed activity; for inhibition of growth at […]: 0.25 ppm
# [1] = Zymoseptoria tritici, 168 h, conc 1 ppm, read-out: Observed activity
# [2] = Pyricularia oryzae, 168 h, read-out: Observed activity
# [3] = Zymoseptoria tritici, 168 h, read-out: Observed activity
# [4] = Zymoseptoria tritici, 168 h, conc 0.25 ppm, read-out: Observed activity
# [5] = Phytophthora infestans, 168 h, read-out: Observed activity
compound,measurement,setting,value
"CCCCCCCCc1c(CC)nc2ncnn2c1N [5-ethyl-6-octyl-[1,2,4]triazolo[1,5-a]pyrimidin-7-ylamine]",inhibition of growth at 1 ppm,Septoria tritici; [1],0%
same,inhibition of growth at 1 ppm,Botrytis cinerea; conc 1 ppm,6%
COCC(=O)N(c1c(C)cccc1C)C(C)C(=O)OC (stereo not drawn) [metalaxyl],inhibition of growth at 1 ppm,Pyricularia oryzae; [2],2%
same,inhibition of growth at 0.016 ppm,Septoria tritici; [3],0%
same,inhibition of growth at […],Septoria tritici; [4],0%
same,inhibition of growth at 1 ppm,Phytophthora infestans; [5],5%
same,inhibition of growth at […],Botrytis cinerea,1%
same,inhibition of growth at 1 ppm,Botrytis cinerea; conc 1 ppm,5%
CC(Cc1ccc(C(C)(C)C)cc1)CN1C[C@@H](C)O[C@@H](C)C1 (stereo partly drawn) [fenpropimorph],inhibition of growth at 1 ppm,Pyricularia oryzae; [2],14%
same,inhibition of growth at 1 ppm,Fusarium culmorum,9%
same,inhibition of growth at 0.063 ppm,Septoria tritici; [3],3%
same,inhibition of growth at […],Septoria tritici; [4],2%
same,inhibition of growth at 0.063 ppm,Phytophthora infestans; [5],4%
same,inhibition of growth at 0.063 ppm,Botrytis cinerea; conc 0.063 ppm,16%
same,inhibition of growth at […],Botrytis cinerea,26%
CC1(C)CCC(=Cc2ccc(Cl)cc2)C1(O)Cn1cncn1 (stereo not drawn) [triticonazole],inhibition of growth at 1 ppm,Fusarium culmorum,17%
same,inhibition of growth at 0.063 ppm,Septoria tritici; [3],13%
same,inhibition of growth at […],Botrytis cinerea,29%
metiram,Observed activity,Pyricularia oryzae; conc 1 ppm,6
same,Observed activity,Pyricularia oryzae; conc 16 ppm,36
same,Observed activity,Septoria tritici; conc 1 ppm,17
Fc1ccc([C@]2(Cn3cncn3)O[C@H]2c2ccccc2Cl)cc1 (racemic) [epoxiconazole],inhibition of growth at […],Fusarium culmorum,0%
same,inhibition of growth at 0.004 ppm,Septoria tritici; [3],4%
same,inhibition of growth at 0.016 ppm,Septoria tritici; [3],47%
same,inhibition of growth at 0.016 ppm,Botrytis cinerea,7%
same,inhibition of growth at 0.063 ppm,Botrytis cinerea; conc 0.063 ppm,25%
mancozeb,Observed activity,Pyricularia oryzae; conc 4 ppm,67
same,Observed activity,Fusarium culmorum; 4 ppm,0%
same,Observed activity,Septoria tritici; conc 4 ppm,23
same,Observed activity,Phytophthora infestans; conc 1 ppm,23%
same,Observed activity,Botrytis cinerea; conc 1 ppm,8%
"O=C(Nc1ccccc1-c1ccc(Cl)cc1)c1cccnc1Cl [II-24, boscalid]",inhibition of growth at 4 ppm,Pyricularia oryzae; [2],0%
same,inhibition of growth at 4 ppm,Fusarium culmorum; 4 ppm,0%
same,inhibition of growth at […],Septoria tritici; [4],59%
"1-(4-chlorophenyl)-3-(5-mercapto-[1,2,4]triazol-1-ylmethyl)-4,4-dimethylpentan-3-ol [I-9]",Observed activity,Pyricularia oryzae; conc 16 ppm,57
same,Observed activity,Fusarium culmorum; 16 ppm,4%
same,Observed activity,Septoria tritici; conc 1 ppm,20
same,Observed activity,Septoria tritici; conc 4 ppm,64
same,Observed activity,Phytophthora infestans; conc 16 ppm,52%
same,Observed activity,Botrytis cinerea; conc 4 ppm,23%
"CCCC(Cn1ncnc1S)c1ccc(Cl)cc1Cl (stereo not drawn) [I-16, 2-[2-(2,4-dichlorophenyl)pentyl]-2H-[1,2,4]triazole-3-thiol]",inhibition of growth at 1 ppm,Pyricularia oryzae; [2],1%
same,inhibition of growth at 16 ppm,Fusarium culmorum; 16 ppm,6%
same,inhibition of growth at 16 ppm,Phytophthora infestans; [5],47%
same,inhibition of growth at 4 ppm,Botrytis cinerea; conc 4 ppm,31%
"Cn1cc(C(=O)Nc2ccccc2-c2cc(F)c(F)c(F)c2)c(C(F)F)n1 [N-(3′,4′,5′-trifluorobiphenyl-2-yl)-3-difluoromethyl-1-methyl-1H-pyrazole-4-carboxamide]",inhibition of growth at 0.004 ppm,Septoria tritici; [3],4%
same,inhibition of growth at 0.016 ppm,Botrytis cinerea,9%
"CCCC1COC(Cn2ncnc2S)(c2ccc(Cl)cc2Cl)O1 (stereo not drawn) [I-17, 2-[2-(2,4-dichlorophenyl)-4-propyl-[1,3]dioxolan-2-ylmethyl]-2H-[1,2,4]triazole-3-thiol]",inhibition of growth at 16 ppm,Fusarium culmorum; 16 ppm,7%
same,inhibition of growth at […],Septoria tritici; [4],38%
same,inhibition of growth at 4 ppm,Botrytis cinerea; conc 4 ppm,33%
N#Cc1c(Cl)c(Cl)c(Cl)c(C#N)c1Cl [chlorothalonil],inhibition of growth at 0.016 ppm,Pyricularia oryzae; [2],0%
same,inhibition of growth at 0.016 ppm,Septoria tritici; [3],8%
same,inhibition of growth at 0.016 ppm,Botrytis cinerea,2%
CO/N=C(/C(=O)OC)c1ccccc1COc1ccccc1C [kresoxim-methyl],inhibition of growth at 1 ppm,Phytophthora infestans; [5],47%
same,inhibition of growth at […],Botrytis cinerea,3%
same,inhibition of growth at 1 ppm,Botrytis cinerea; conc 1 ppm,17%
OC(Cn1cncn1)(c1ccc(F)cc1)c1ccccc1F (stereo not drawn) [flutriafol],inhibition of growth at 16 ppm,Fusarium culmorum; 16 ppm,29%
same,inhibition of growth at […],Septoria tritici; [4],3%
same,inhibition of growth at 4 ppm,Botrytis cinerea; conc 4 ppm,14%
same,inhibition of growth at 16 ppm,Botrytis cinerea; conc 16 ppm,42%
"CC1(C)CCC(Cc2ccc(Cl)cc2)C1(O)Cn1ncnc1S (stereo not drawn) [I-4, 5-(4-chlorobenzyl)-1-(5-mercapto-[1,2,4]triazol-1-ylmethyl)-2,2-dimethylcyclopentanol]",inhibition of growth at 4 ppm,Pyricularia oryzae; [2],3%
same,inhibition of growth at 16 ppm,Fusarium culmorum; 16 ppm,3%
same,inhibition of growth at […],Septoria tritici; [4],63%
same,inhibition of growth at 1 ppm,Septoria tritici; [1],68%
same,inhibition of growth at 1 ppm,Botrytis cinerea; conc 1 ppm,28%
same,melting point,,186 to 196 °C
CC1CN(C2CCCCCCCCCCC2)CC(C)O1 (stereo not drawn) [dodemorph],inhibition of growth at 4 ppm,Pyricularia oryzae; [2],1%
same,inhibition of growth at 0.063 ppm,Septoria tritici; [3],0%
same,inhibition of growth at […],Septoria tritici; [4],0%
same,inhibition of growth at 4 ppm,"Septoria tritici; Zymoseptoria tritici, 168 h, conc 4 ppm, read-out: Observed activity",23%
same,inhibition of growth at […],Botrytis cinerea,7%
same,inhibition of growth at 1 ppm,Botrytis cinerea; conc 1 ppm,9%
same,inhibition of growth at 4 ppm,Botrytis cinerea; conc 4 ppm,33%
"CCCCCCCCc1c(CC)nc2ncnn2c1N [5-ethyl-6-octyl-[1,2,4]triazolo-[1,5-a]pyrimidin-7-ylamine]",inhibition of growth at 4 ppm,Fusarium culmorum; 4 ppm,2%
CC(C1CC1)C(O)(Cn1ncnc1S)c1ccc(Cl)cc1 (stereo not drawn) [I-23],Observed activity,Septoria tritici; conc 1 ppm,7
same,Observed activity,Septoria tritici; conc 4 ppm,9
same,Observed activity,Botrytis cinerea; conc 16 ppm,26%
"CC1(C)CC/C(=C\c2ccc(Cl)cc2)C1(O)Cn1ncnc1S (stereo not drawn) [I-22, 5-[1-(4-chlorophenyl)meth-(E)-ylidene]-1-(5-mercapto-[1,2,4]triazol-1-ylmethyl)-2,2-dimethylcyclopentanol]",inhibition of growth at 16 ppm,"Septoria tritici; Zymoseptoria tritici, 168 h, conc 16 ppm, read-out: Observed activity",22%
same,inhibition of growth at 1 ppm,Phytophthora infestans; [5],6%
same,inhibition of growth at 16 ppm,Botrytis cinerea; conc 16 ppm,8%
same,melting point,,176.5 °C
O=c1c2cc(F)ccc2nc(-n2cncn2)n1-c1ccc(Cl)cc1Cl [fluquinconazole],inhibition of growth at 4 ppm,Fusarium culmorum; 4 ppm,0%
"COC(=O)NC(=S)Nc1ccccc1NC(=S)NC(=O)OC [thiophanate-methyl, thiophanate methyl]",inhibition of growth at 1 ppm,Pyricularia oryzae; [2],4%
same,inhibition of growth at 1 ppm,Phytophthora infestans; [5],7%
COC(=O)N(OC)c1ccccc1COc1ccn(-c2ccc(Cl)cc2)n1 [pyraclostrobin],inhibition of growth at 0.004 ppm,Pyricularia oryzae; [2],25%
same,inhibition of growth at 0.016 ppm,Pyricularia oryzae; [2],54%
same,inhibition of growth at 0.063 ppm,Fusarium culmorum,0%
same,inhibition of growth at […],"Septoria tritici; Zymoseptoria tritici, 168 h, conc 0.00025 ppm, read-out: Observed activity",5%
same,inhibition of growth at 0.004 ppm,Septoria tritici; [3],44%
same,inhibition of growth at 0.016 ppm,Septoria tritici; [3],75%
same,inhibition of growth at 0.016 ppm,Phytophthora infestans; [5],13%
same,inhibition of growth at 0.063 ppm,Phytophthora infestans; [5],26%
"CC1COC(Cn2ncnc2S)(c2ccc(Oc3ccc(Cl)cc3)cc2Cl)O1 (stereo not drawn) [I-5, 2-{2-[2-chloro-4-(4-chlorophenoxy)phenyl]-4-methyl-[1,3]dioxolan-2-ylmethyl}-2H-[1,2,4]triazole-3-thiol]",inhibition of growth at 1 ppm,Phytophthora infestans; [5],8%
same,inhibition of growth at 4 ppm,Botrytis cinerea; conc 4 ppm,36%
same,melting point,,73.4 °C
COc1cc(C)c(C(=O)c2c(OC)ccc(Br)c2C)c(OC)c1OC [metrafenone],inhibition of growth at 1 ppm,Pyricularia oryzae; [2],11%
same,inhibition of growth at 1 ppm,Botrytis cinerea; conc 1 ppm,0%
O=C(NCCc1ncc(C(F)(F)F)cc1Cl)c1ccccc1C(F)(F)F [fluopyram],inhibition of growth at […],Fusarium culmorum,0%
same,inhibition of growth at 0.016 ppm,Botrytis cinerea,0%
same,inhibition of growth at 0.063 ppm,Botrytis cinerea; conc 0.063 ppm,0%
"CCCCC(C#N)(Cn1ncnc1S)c1ccc(Cl)cc1 (stereo not drawn) [I-10, 2-(4-chlorophenyl)-2-(5-mercapto-[1,2,4]triazol-1-ylmethyl)hexanenitrile]",inhibition of growth at 16 ppm,Pyricularia oryzae; [2],8%
same,inhibition of growth at 1 ppm,Septoria tritici; [1],2%
same,inhibition of growth at 4 ppm,Phytophthora infestans; [5],2%
CC(C)NC(=O)N1CC(=O)N(c2cc(Cl)cc(Cl)c2)C1=O [iprodione],inhibition of growth at 1 ppm,Pyricularia oryzae; [2],24%
same,inhibition of growth at 1 ppm,Fusarium culmorum,3%
same,inhibition of growth at 0.063 ppm,Septoria tritici; [3],11%
CC(C)(C)C(O)(CCc1ccc(Cl)cc1)Cn1cncn1 (stereo not drawn) [tebuconazole],inhibition of growth at 0.004 ppm,Pyricularia oryzae; [2],4%
same,inhibition of growth at 0.063 ppm,Phytophthora infestans; [5],3%
CC1(C)CCC(Cc2ccc(Cl)cc2)C1(O)Cn1cncn1 (stereo not drawn) [metconazole],inhibition of growth at 0.063 ppm,Fusarium culmorum,0%
same,inhibition of growth at […],Fusarium culmorum,37%
same,inhibition of growth at 0.004 ppm,Septoria tritici; [3],0%
same,inhibition of growth at 0.016 ppm,Septoria tritici; [3],23%
same,inhibition of growth at 0.063 ppm,Botrytis cinerea; conc 0.063 ppm,31%
CNC(=O)/C(=N/OC)c1ccccc1CO/N=C(C)/C(=N/OC)C(/C)=N/OC [orysastrobin],Observed activity,Botrytis cinerea; conc 0.063 ppm,1%
OC(Cc1ccccc1Cl)(Cn1nc[nH]c1=S)C1(Cl)CC1 (stereo not drawn) [prothioconazole],inhibition of growth at […],Fusarium culmorum,0%
same,inhibition of growth at 0.004 ppm,Septoria tritici; [3],0%
same,inhibition of growth at 0.016 ppm,Botrytis cinerea,5%
same,inhibition of growth at 0.063 ppm,Botrytis cinerea; conc 0.063 ppm,17%
Cc1cc(C)nc(Nc2ccccc2)n1 [pyrimethanil],inhibition of growth at 4 ppm,Fusarium culmorum; 4 ppm,3%
same,inhibition of growth at 1 ppm,Septoria tritici; [1],0%
same,inhibition of growth at 0.063 ppm,Botrytis cinerea; conc 0.063 ppm,7%

# — patent US20120088665A1, “FUNGICIDAL MIXTURES” (BASF SE, priority 2009, published 2012)
